From ChEMBL document CHEMBL1152560, “Substituted 2-arylbenzothiazoles as kinase inhibitors: hit-to-lead optimization” (Bioorg Med Chem, 2009) come the findings set out here.

Test [1] addresses T1, Muscle, skeletal receptor tyrosine-protein kinase (Homo sapiens) (UniProt O15146).
T1 sequence (whole entry): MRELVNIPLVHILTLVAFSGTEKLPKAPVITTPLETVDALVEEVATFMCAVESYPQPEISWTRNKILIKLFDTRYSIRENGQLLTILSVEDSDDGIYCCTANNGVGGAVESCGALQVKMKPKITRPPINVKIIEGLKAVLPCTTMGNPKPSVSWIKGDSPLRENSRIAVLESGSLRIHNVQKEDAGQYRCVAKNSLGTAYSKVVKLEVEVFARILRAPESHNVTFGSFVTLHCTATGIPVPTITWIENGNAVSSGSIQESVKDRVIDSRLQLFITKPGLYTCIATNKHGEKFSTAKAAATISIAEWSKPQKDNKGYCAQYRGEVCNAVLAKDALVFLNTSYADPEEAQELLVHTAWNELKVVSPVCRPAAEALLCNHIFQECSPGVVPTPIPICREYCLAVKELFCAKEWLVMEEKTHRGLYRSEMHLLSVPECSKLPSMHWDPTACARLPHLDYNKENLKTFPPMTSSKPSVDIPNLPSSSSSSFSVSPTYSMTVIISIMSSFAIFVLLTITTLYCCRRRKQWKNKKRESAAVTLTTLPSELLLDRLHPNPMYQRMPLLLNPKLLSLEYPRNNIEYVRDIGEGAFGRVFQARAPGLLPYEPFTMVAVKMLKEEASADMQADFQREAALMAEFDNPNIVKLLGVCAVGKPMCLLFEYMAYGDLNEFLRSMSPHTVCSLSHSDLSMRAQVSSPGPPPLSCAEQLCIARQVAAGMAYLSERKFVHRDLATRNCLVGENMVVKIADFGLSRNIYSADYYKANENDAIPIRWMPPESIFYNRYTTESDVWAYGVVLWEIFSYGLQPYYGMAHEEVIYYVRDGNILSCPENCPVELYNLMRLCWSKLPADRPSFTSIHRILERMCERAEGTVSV
Nature of the test: Residual activity of MUSK at 1 uM by microplate scintillation counting.

Test [2] deals with T1, Muscle, skeletal receptor tyrosine-protein kinase (Homo sapiens). In words: Residual activity of MUSK at 0.1 uM by microplate scintillation counting.
Test [3] addresses Insulin receptor (Homo sapiens) (UniProt P06213). Nature of the test: Residual activity of INSR at 10 uM by microplate scintillation counting.
For test [4], the target named is Tyrosine-protein kinase Yes (Homo sapiens) (UniProt P07947). Nature of the test: Residual activity of YES at 0.1 uM by microplate scintillation counting.
Test [5] has as its target T2, Serine/threonine-protein kinase BRSK1 (Homo sapiens) (UniProt Q8TDC3).
T2 sequence (whole entry): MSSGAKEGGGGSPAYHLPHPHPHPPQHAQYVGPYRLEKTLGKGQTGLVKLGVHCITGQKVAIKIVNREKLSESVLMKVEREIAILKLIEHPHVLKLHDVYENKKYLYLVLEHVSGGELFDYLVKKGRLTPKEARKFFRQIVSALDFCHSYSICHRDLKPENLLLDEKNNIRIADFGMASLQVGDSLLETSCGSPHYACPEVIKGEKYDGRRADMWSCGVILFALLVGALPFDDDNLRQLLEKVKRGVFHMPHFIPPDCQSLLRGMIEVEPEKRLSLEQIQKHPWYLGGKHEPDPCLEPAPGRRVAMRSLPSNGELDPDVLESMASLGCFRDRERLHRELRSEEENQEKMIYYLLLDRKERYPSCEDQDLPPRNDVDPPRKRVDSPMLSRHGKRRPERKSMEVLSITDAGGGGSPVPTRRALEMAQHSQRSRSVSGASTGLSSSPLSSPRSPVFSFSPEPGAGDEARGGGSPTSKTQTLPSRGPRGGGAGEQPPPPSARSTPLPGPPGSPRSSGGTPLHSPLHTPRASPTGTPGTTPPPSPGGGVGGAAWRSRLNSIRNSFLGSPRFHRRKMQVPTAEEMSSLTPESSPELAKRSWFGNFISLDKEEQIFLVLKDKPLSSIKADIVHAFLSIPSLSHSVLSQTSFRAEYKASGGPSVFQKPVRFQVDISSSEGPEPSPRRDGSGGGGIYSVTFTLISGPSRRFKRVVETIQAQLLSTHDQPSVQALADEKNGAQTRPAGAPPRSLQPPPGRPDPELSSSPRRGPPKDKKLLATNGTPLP
Nature of the test: Residual activity of BRSK1 at 10 uM by microplate scintillation counting.

The target in test [6] is CDK3/cyclin E (Homo sapiens) (UniProt P24864+O96020+Q00526). In words: Residual activity of CDK3/Cyclin E at 10 uM by microplate scintillation counting. The test is classed as protein-complex assay.
Test [7] deals with Dual specificity tyrosine-phosphorylation-regulated kinase 1B (Homo sapiens) (UniProt Q9Y463). In words: Residual activity of DYRK1B at 0.1 uM by microplate scintillation counting.
Test [8] addresses T3, Lymphokine-activated killer T-cell-originated protein kinase (Homo sapiens) (UniProt Q96KB5).
T3 sequence (whole entry): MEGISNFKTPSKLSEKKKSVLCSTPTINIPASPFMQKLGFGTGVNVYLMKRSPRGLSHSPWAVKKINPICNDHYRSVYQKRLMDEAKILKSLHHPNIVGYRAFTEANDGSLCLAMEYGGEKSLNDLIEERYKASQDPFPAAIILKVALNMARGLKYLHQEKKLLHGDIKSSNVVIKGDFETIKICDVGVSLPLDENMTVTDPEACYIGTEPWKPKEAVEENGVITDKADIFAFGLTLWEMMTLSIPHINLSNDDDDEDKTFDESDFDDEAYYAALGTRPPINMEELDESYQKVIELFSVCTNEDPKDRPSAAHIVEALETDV
Nature of the test: Residual activity of PBK at 10 uM by microplate scintillation counting.

Test [9] deals with Calcium/calmodulin-dependent protein kinase type II subunit delta (Homo sapiens) (UniProt Q13557). In words: Residual activity of CAMK2D at 1 uM by microplate scintillation counting.
The target of test [10] is T4, Aurora kinase C (Homo sapiens) (UniProt Q9UQB9).
T4 sequence (whole entry): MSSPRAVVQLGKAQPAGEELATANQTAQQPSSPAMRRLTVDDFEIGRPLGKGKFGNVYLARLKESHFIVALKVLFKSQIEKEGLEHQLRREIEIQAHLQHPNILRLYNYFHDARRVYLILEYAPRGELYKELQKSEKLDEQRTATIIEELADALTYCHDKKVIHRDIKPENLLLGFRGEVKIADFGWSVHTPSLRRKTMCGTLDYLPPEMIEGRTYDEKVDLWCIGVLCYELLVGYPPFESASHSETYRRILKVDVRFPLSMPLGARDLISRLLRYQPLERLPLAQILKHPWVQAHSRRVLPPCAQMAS
In words: Residual activity of Aurora-C at 0.1 uM by microplate scintillation counting.

Test [11] deals with Ribosomal protein S6 kinase alpha-2 (Homo sapiens) (UniProt Q15349). In words: Residual activity of RPS6KA2 at 10 uM by microplate scintillation counting.
The target of test [12] is Ribosomal protein S6 kinase alpha-6 (Homo sapiens) (UniProt Q9UK32). Nature of the test: Residual activity of RPS6KA6 at 10 uM by microplate scintillation counting.
Chain of Ribosomal protein S6 kinase alpha-6 (Homo sapiens) (Q9UK32 whole entry): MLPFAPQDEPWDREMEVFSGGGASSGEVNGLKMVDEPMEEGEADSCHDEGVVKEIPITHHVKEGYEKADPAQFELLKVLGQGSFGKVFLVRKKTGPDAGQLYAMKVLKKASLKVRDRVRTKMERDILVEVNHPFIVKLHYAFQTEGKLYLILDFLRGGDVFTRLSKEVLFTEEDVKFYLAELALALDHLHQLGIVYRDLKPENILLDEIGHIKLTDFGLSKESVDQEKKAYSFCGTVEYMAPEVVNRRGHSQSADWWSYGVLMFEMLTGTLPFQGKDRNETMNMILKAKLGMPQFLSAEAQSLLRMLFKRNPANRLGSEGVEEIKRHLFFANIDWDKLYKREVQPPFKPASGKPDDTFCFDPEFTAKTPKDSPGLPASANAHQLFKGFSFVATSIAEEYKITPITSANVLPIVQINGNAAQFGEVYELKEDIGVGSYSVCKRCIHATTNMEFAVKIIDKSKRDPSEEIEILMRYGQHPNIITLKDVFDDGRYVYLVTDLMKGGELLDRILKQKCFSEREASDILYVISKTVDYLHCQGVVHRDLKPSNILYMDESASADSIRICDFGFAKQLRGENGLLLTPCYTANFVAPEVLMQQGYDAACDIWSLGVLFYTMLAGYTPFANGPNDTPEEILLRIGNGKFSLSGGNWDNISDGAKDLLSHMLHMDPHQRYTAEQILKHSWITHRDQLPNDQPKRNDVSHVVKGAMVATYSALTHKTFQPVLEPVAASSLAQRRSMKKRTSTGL

Chain of CDK3/cyclin E (Homo sapiens) (O96020 whole entry, looked up): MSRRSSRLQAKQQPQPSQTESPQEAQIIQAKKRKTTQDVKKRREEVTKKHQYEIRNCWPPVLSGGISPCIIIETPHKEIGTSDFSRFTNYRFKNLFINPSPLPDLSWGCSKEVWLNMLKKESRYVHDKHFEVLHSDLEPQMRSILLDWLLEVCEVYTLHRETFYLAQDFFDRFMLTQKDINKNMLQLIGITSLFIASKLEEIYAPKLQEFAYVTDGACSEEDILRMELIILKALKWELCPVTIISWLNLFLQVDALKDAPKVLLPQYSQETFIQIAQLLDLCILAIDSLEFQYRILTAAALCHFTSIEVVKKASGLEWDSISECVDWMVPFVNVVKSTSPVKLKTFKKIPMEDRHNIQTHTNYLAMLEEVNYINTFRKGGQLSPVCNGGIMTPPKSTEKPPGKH
Chain of CDK3/cyclin E (Homo sapiens) (P24864 whole entry, looked up): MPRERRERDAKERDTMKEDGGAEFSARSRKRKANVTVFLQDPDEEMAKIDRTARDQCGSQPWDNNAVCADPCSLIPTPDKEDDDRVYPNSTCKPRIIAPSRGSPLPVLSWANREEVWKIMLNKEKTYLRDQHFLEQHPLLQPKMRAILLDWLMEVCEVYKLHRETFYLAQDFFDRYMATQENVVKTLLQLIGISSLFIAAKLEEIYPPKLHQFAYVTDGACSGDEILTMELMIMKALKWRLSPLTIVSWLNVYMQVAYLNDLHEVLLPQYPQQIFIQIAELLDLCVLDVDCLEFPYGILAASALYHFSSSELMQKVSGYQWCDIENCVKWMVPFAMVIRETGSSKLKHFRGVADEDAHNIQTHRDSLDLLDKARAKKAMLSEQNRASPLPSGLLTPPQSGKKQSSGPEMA
Chain of CDK3/cyclin E (Homo sapiens) (Q00526 whole entry, looked up): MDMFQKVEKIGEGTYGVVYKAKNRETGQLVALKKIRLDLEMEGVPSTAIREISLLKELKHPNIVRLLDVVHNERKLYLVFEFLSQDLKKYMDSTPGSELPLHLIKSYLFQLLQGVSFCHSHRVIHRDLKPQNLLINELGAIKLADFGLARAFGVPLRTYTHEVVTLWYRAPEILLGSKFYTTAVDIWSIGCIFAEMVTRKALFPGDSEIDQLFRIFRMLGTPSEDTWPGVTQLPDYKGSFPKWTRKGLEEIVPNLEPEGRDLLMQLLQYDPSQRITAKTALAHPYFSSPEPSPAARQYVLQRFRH
Chain of Calcium/calmodulin-dependent protein kinase type II subunit delta (Homo sapiens) (Q13557 whole entry): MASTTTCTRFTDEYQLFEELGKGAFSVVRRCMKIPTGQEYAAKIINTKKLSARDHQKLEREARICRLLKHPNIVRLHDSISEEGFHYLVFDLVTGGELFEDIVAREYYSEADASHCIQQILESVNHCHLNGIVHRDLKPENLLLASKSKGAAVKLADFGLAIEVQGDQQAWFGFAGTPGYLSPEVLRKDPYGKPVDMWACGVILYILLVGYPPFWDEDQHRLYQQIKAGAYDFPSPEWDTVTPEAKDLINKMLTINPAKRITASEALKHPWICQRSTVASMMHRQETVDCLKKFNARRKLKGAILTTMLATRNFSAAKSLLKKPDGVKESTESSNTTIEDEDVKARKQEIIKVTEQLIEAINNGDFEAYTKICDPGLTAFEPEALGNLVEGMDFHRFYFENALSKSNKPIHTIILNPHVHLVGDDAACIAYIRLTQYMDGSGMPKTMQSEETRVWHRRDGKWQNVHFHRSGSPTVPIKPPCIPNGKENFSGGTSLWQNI
Chain of Ribosomal protein S6 kinase alpha-2 (Homo sapiens) (Q15349 whole entry): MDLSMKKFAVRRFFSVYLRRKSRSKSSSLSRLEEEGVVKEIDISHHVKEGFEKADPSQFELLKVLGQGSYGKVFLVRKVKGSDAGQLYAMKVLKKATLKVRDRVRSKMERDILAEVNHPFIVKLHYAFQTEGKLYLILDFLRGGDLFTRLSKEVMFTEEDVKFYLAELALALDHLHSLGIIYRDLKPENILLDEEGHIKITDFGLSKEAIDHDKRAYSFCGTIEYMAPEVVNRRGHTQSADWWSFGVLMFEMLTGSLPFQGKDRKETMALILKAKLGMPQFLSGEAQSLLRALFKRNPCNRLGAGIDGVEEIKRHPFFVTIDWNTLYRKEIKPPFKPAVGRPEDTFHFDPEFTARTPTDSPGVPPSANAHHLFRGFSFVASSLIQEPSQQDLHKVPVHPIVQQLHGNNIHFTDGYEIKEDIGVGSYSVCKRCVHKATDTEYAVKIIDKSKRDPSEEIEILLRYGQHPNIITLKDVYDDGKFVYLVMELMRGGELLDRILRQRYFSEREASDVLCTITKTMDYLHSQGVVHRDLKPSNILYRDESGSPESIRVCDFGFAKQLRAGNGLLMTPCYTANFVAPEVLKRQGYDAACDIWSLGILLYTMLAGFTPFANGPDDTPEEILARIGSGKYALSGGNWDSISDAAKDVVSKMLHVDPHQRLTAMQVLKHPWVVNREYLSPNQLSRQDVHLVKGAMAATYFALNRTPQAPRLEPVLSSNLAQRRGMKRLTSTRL
Chain of Insulin receptor (Homo sapiens) (P06213 28-758 limits assumed): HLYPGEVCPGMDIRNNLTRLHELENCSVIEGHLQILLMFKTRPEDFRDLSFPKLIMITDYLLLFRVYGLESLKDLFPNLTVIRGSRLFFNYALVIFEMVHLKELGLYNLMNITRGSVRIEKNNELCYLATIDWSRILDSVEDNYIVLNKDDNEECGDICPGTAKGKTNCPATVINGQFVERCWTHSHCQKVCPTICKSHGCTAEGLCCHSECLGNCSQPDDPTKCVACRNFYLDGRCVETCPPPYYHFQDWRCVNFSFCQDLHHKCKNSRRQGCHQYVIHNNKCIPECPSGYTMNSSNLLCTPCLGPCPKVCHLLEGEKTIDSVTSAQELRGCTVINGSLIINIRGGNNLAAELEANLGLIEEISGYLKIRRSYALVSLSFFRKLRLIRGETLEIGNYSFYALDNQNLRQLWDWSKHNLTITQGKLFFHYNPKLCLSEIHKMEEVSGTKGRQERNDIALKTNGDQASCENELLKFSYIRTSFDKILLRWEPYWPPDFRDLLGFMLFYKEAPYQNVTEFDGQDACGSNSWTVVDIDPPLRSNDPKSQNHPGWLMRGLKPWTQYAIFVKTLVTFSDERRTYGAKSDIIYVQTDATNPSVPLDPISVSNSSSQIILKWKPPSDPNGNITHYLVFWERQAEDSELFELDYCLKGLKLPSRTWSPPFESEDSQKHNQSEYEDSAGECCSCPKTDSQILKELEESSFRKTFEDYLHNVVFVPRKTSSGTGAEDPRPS
Chain of Insulin receptor (Homo sapiens) (P06213 763-1382 limits assumed): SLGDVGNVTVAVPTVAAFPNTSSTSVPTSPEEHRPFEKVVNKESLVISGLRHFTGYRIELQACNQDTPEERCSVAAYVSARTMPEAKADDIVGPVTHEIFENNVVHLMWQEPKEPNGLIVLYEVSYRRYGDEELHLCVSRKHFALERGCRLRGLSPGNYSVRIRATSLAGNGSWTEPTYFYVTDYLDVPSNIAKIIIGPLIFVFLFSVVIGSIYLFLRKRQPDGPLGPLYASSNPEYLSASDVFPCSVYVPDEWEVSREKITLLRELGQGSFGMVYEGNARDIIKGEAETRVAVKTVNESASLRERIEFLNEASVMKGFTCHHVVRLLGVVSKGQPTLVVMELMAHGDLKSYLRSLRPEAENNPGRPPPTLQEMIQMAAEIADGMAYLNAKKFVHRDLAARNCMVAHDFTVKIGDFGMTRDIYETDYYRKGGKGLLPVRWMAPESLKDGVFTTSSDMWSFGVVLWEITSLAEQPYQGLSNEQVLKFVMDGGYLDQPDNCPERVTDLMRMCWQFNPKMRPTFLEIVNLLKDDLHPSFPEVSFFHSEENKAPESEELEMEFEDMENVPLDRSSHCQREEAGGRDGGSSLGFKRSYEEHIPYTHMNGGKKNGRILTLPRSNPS
Chain of Tyrosine-protein kinase Yes (Homo sapiens) (P07947 2-543 limits assumed): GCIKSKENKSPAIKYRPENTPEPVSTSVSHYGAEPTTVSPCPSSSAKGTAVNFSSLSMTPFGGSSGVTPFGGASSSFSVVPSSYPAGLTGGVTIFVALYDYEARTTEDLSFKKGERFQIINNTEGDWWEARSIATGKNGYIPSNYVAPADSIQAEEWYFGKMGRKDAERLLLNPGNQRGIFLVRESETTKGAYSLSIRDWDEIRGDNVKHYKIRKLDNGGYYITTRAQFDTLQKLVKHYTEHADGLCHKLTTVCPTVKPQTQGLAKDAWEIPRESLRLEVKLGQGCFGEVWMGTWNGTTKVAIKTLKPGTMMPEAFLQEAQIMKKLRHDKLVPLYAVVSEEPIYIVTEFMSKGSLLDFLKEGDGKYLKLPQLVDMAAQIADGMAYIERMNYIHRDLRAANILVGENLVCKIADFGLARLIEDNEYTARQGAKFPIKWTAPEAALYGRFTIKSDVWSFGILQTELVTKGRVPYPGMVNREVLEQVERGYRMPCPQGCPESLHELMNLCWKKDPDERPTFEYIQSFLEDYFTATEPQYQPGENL

On to `COc1cc2c(Oc3ccc(-c4nc5ccccc5s4)cc3F)ncnc2cc1OCCCN1CCN(C)CC1`, for which the residual activity came out at 88% in test [1]; 96% in [2]; 29% in test [3]; 80% in [4]; 103% in test [5]; 119% in [6]. The residual activity in test [7] is 89%; in test [8], 65%; in [9], 97%; in test [10] it was 48%; in [11], 39%; in [12], 32%.

Regarding `COc1cc2c(Oc3ccc(-c4nc5ccccc5s4)cc3)ncnc2cc1OCCCN1CCN(C)CC1`, the residual activity in test [1] turned out to be 89%; in [2], 95%; in [3] it was 33%; in test [4] it was 93%; in test [5], 100%; in [6], 130%. Moreover, the residual activity in test [7] came to 104%; in [8] it was 102%; in [9], 92%; in test [10], 42%; in [11], 44%; in test [12], 35%.

Consider `COc1cc2c(Oc3ccc(-c4nc5ccccc5s4)cc3)ncnc2cc1OCCCN1CCCC1`, for which the residual activity was determined as 94% in [1]; 97% in [2]; 59% in test [3]; 98% in [4]; 99% in test [5]; 113% in test [6]. The residual activity in test [7] was 98%; in test [8], 85%; in test [9], 96%; in test [10] it was 42%; in test [11], 81%; in test [12], 50%.
